Assay results taken from patent publication US8586739B2, “Heterocyclic compounds and their uses” (Amgen Inc., priority 2007, dated 2013).
pIC50: −log10 of the molar value.

Test system: human B cells
Assay: Human B cells proliferation stimulated by anti-IgM (3H thymidine)
Format: cell-based
Procedure: Human B Cells Proliferation stimulate by anti-IgM
Isolate PBMCs from Leukopac or from human fresh blood. Isolate human B cells by using Miltenyi protocol and B cell isolation kit II.—human B cells were Purified by using autoMACS® column.
Activation of Human B Cells
Use 96 well Flat bottom plate, plate 50000/well purified B cells in B cell proffer-ation medium (DMEM+5% FCS, 10 mM Hepes, 50 μM 2-mercaptoethanol); 150 μL medium contain 250 ng/mL CD40L-LZ recombinant protein (Amgen) and 2 μg/mL anti-Human IgM antibody (Jackson ImmunoReseach Lab.#109-006-129), mixed with 50 μL B cell medium containing PI3K inhibitors and incubate 72 h at 37° C. incubator. After 72 h, pulse labeling B cells with 0.5-1 uCi/well ^3H thymidine for overnight ˜18 h, and harvest cell using TOM harvester.

[1] = Homo sapiens, B-cell, 72 h, purified human B cells, anti-Human IgM + CD40L-LZ
[2] = Homo sapiens, B-cell, purified human B cells, anti-Human IgM + CD40L-LZ, 72 h

| SMILES | pIC50 [1] | other results |
| --- | --- | --- |
| C[C@H](Nc1ncnc2[nH]cnc12)c1cc2cccc(Cl)c2nc1-c1cccnn1 [N-((1S)-1-(8-chloro-2-(3-pyridazinyl)-3-quinolinyl)ethyl)-9H-purin-6-amine] | 7.74 |  |
| C[C@H](Nc1ncnc2[nH]cnc12)c1cc2ccccc2nc1-c1ccccn1 [N-((1S)-1-(2-(2-pyridinyl)-3-quinolinyl)ethyl)-9H-purin-6-amine] | 8.25 |  |
| C[C@H](Nc1ncnc2[nH]cnc12)c1cc2cccc(Cl)c2nc1Oc1ccccc1 [N-((1S)-1-(8-chloro-2-phenoxy-3-quinolinyl)ethyl)-9H-purin-6-amine] | 7.53 |  |
| OCC[C@H](Nc1ncnc2[nH]cnc12)c1cc2cccc(Cl)c2nc1-c1ccccc1Cl [(3S)-3-(8-chloro-2-(2-chlorophenyl)-3-quinolinyl)-3-(9H-purin-6-ylamino)-1-propanol] | 7.88 |  |
| C[C@@H](Nc1ncnc2[nH]cnc12)c1nc2cccc(Cl)c2cc1-c1cccc(F)c1 [N-((1R)-1-(5-chloro-3-(3-fluorophenyl)-2-quinolinyl)ethyl)-9H-purin-6-amine] | 7.68 |  |
| Cc1cc(C)n(-c2nc3c(Cl)cccc3cc2[C@H](C)Nc2ncnc3[nH]cnc23)n1 [N-((1S)-1-(8-chloro-2-(3,5-dimethyl-1H-pyrazol-1-yl)-3-quinolinyl)ethyl)-9H-purin-6-amine] | 8.58 |  |
| Cc1cccnc1-c1nc2c(Cl)cccc2cc1[C@H](C)Nc1ncnc2[nH]cnc12 [N-((1S)-1-(8-chloro-2-(3-methyl-2-pyridinyl)-3-quinolinyl)ethyl)-9H-purin-6-amine] | 7.48 |  |
| CS(=O)(=O)c1cccc2nc(-c3ccccc3Cl)c(CNc3ncnc4[nH]cnc34)nc12 [N-((3-(2-chlorophenyl)-8-(methylsulfonyl)-2-quinoxalinyl)methyl)-9H-purin-6-amine] | 5.62 |  |
| C[C@H](Nc1ncnc2[nH]cnc12)c1cc2cccc(Cl)c2nc1-c1cncc(F)c1 [N-((1S)-1-(8-chloro-2-(5-fluoro-3-pyridinyl)-3-quinolinyl)ethyl)-9H-purin-6-amine] | 8.45 |  |
| Clc1cccc2cc(CNc3ncnc4[nH]cnc34)c(Oc3ccccc3)nc12 [N-((8-chloro-2-phenoxy-3-quinolinyl)methyl)-9H-purin-6-amine] | 7.58 |  |
| C[C@H](Nc1ncnc2[nH]cnc12)c1cc2cccc(Cl)c2nc1-c1cccc(F)c1F [N-((S)-1-(8-Chloro-2-(2,3-difluorophenyl)quinolin-3-yl)ethyl)-9H-purin-6-amine] | 8.12 |  |
| C[C@H](Nc1ncnc2[nH]cnc12)c1cc2ccc(F)cc2nc1-c1cccc(F)n1 [N-((1S)-1-(7-fluoro-2-(6-fluoro-2-pyridinyl)-3-quinolinyl)ethyl)-9H-purin-6-amine] | 8.43 |  |
| C[C@H](Nc1ncnc2[nH]cnc12)c1cc2ccc(F)cc2nc1-c1ccccc1 [N-((1S)-1-(7-fluoro-2-phenyl-3-quinolinyl)ethyl)-9H-purin-6-amine] | 8.29 |  |
| COc1ccc(F)cc1-c1nc2c(Cl)cccc2cc1CNc1ncnc2[nH]cnc12 [N-((8-chloro-2-(5-fluoro-2-methoxyphenyl)-3-quinolinyl)methyl)-9H-purin-6-amine] | 7.56 |  |
| C[C@@H](Nc1ncnc2[nH]cnc12)c1nc2cccc(C(F)(F)F)c2nc1-c1ccccc1Cl [N-((1R)-1-(3-(2-chlorophenyl)-5-(trifluoromethyl)-2-quinoxalinyl)ethyl)-9H-purin-6-amine] | 7.27 |  |
| Clc1cccc2cc(CNc3ncnc4[nH]cnc34)c(-c3ccccc3-c3ccccc3)nc12 [N-((2-(2-biphenylyl)-8-chloro-3-quinolinyl)methyl)-9H-purin-6-amine] | 6.78 |  |
| C[C@H](Nc1ncnc2[nH]cnc12)c1cc2cccc(Cl)c2nc1-c1ccccc1F [N-((1S)-1-(8-chloro-2-(2-fluorophenyl)-3-quinolinyl)ethyl)-9H-purin-6-amine] | 8.45 | pIC50 [2]: 8.45 |
| CC(C)c1ncncc1-c1nc2c(Cl)cccc2cc1CNc1ncnc2[nH]cnc12 [N-((8-chloro-2-(4-(1-methylethyl)-5-pyrimidinyl)-3-quinolinyl)methyl)-9H-purin-6-amine] | 7.10 |  |
| CC(C)Cc1ncc(F)cc1-c1nc2c(Cl)cccc2cc1[C@H](C)Nc1ncnc2[nH]cnc12 [N-((1S)-1-(8-chloro-2-(5-fluoro-2-(2-methylpropyl)-3-pyridinyl)-3-quinolinyl)ethyl)-9H-purin-6-amine] | 7.81 |  |
| Clc1cccc2cc(CNc3ncnc4[nH]cnc34)c(-c3ccccc3)nc12 [N-((8-chloro-2-phenyl-3-quinolinyl)methyl)-9H-purin-6-amine] | 6.66 |  |
| C[C@H](Nc1ncnc2[nH]cnc12)c1cc2cccc(Cl)c2nc1-c1ccccc1 [N-((1S)-1-(8-chloro-2-phenyl-3-quinolinyl)ethyl)-9H-purin-6-amine] | 8.58 |  |
| C[C@H](Oc1ncnc2[nH]ccc12)c1cc2cccc(Cl)c2nc1-c1ccccc1 [8-chloro-2-phenyl-3-((1S)-1-(7H-pyrrolo[2,3-d]pyrimidin-4-yloxy)ethyl)quinoline] | 8.52 |  |

| SMILES | pIC50 [1] | other results |
| --- | --- | --- |
| Fc1cccc2nc(CNc3ncnc4[nH]cnc34)c(-c3ccccc3Cl)nc12 [N-((3-(2-Chlorophenyl)-5-fluoroquinoxalin-2-yl)methyl)-9H-purin-6-amine] | 6.52 |  |
| Clc1ccccc1-c1nc2c(I)cccc2nc1CNc1ncnc2[nH]cnc12 [N-((3-(2-Chlorophenyl)-5-iodoquinoxalin-2-yl)methyl)-9H-purin-6-amine] | 7.05 |  |
| Fc1cccc(-c2nc3c(Cl)cccc3nc2CNc2ncnc3[nH]cnc23)c1 [N-((5-Chloro-3-(3-fluorophenyl)quinoxalin-2-yl)methyl)-9H-purin-6-amine] | 7.14 |  |
| C[C@H](Nc1nc(F)nc2[nH]cnc12)c1cc2cccc(Cl)c2nc1-c1ccccn1 [N-((1S)-1-(8-chloro-2-(2-pyridinyl)-3-quinolinyl)ethyl)-2-fluoro-9H-purin-6-amine] | 7.85 |  |
| C[C@H](Nc1ncnc2[nH]cnc12)c1cc2cccc(Cl)c2nc1-c1cnccc1C(N)=O [3-(8-chloro-3-((1S)-1-(9H-purin-6-ylamino)ethyl)-2-quinolinyl)-4-pyridinecarboxamide] | 5.33 |  |
| C[C@H](Nc1ncnc2nc[nH]c12)c1cc2cccc(F)c2nc1-c1cc(F)ccc1F [N-((1S)-1-(2-(2,5-difluorophenyl)-8-fluoro-3-quinolinyl)ethyl)-7H-purin-6-amine] | 7.90 |  |
| C[C@H](Nc1ncnc2[nH]cnc12)c1cc2cccc(Cl)c2nc1-c1ccccc1Cl [N-((1S)-1-(8-chloro-2-(2-chlorophenyl)-3-quinolinyl)ethyl)-9H-purin-6-amine] | 8.44 |  |
| Fc1cccc2nc(-c3ccccc3Cl)c(CNc3ncnc4[nH]cnc34)nc12 [N-((3-(2-Chlorophenyl)-8-fluoroquinoxalin-2-yl)methyl)-9H-purin-6-amine] | 6.75 |  |
| C[C@H](Nc1ncnc2[nH]cnc12)c1cc2cccc(Cl)c2nc1-c1cccc(F)c1 [N-((1S)-1-(8-chloro-2-(3-fluorophenyl)-3-quinolinyl)ethyl)-9H-purin-6-amine] | 8.62 |  |
| C[C@H](Nc1ncnc2[nH]cnc12)c1cc2cccc(C#N)c2nc1-c1cccc(F)c1 [2-(3-fluorophenyl)-3-((1S)-1-(9H-purin-6-ylamino)ethyl)-8-quinolinecarbonitrile] | 8.47 |  |
| Fc1cccc2cc(CNc3ncnc4nc[nH]c34)c(-c3ccccc3)nc12 [N-((8-fluoro-2-phenyl-3-quinolinyl)methyl)-7H-purin-6-amine] | 6.62 |  |
| C[C@@H](Nc1ncnc2[nH]cnc12)c1cc2cccc(Cl)c2nc1-c1nccs1 [N-((1R)-1-(8-chloro-2-(1,3-thiazol-2-yl)-3-quinolinyl)ethyl)-9H-purin-6-amine] | 6.74 |  |
| Cc1cccc(-c2nc3c(Cl)cccc3cc2[C@H](C)Nc2ncnc3[nH]cnc23)n1 [N-((1S)-1-(8-chloro-2-(6-methyl-2-pyridinyl)-3-quinolinyl)ethyl)-9H-purin-6-amine] | 6.98 |  |
| C[C@H](Nc1ncnc2[nH]cnc12)c1cc2ccc(F)cc2nc1-c1ccccc1Cl [N-((1S)-1-(2-(2-chlorophenyl)-7-fluoro-3-quinolinyl)ethyl)-9H-purin-6-amine] | 7.54 | pIC50 [2]: 7.54 |
| Oc1ccc(F)cc1-c1nc2c(Cl)cccc2cc1CNc1ncnc2[nH]cnc12 [2-(8-chloro-3-((9H-purin-6-ylamino)methyl)-2-quinolinyl)-4-fluorophenol] | 6.09 |  |
| C[C@H](Nc1ncnc2[nH]cnc12)c1nc2cccc(Cl)c2nc1-c1cccc(F)c1 [N-((S)-1-(5-Chloro-3-(3-fluorophenyl)quinoxalin-2-yl)ethyl)-9H-purin-6-amine] | 8.07 |  |
| Fc1cccc(-c2cc3c(Cl)cccc3nc2CNc2ncnc3[nH]cnc23)c1 [N-((5-chloro-3-(3-fluorophenyl)-2-quinolinyl)methyl)-9H-purin-6-amine] | 6.89 |  |
| C[C@H](Nc1ncnc2[nH]cnc12)c1cc2cccc(Cl)c2nc1-c1cccnc1 [N-((1S)-1-(8-chloro-2-(3-pyridinyl)-3-quinolinyl)ethyl)-9H-purin-6-amine] | 8.46 |  |
| C[C@H](Nc1ncnc2[nH]cnc12)c1cc2ccc(F)cc2[n+]([O-])c1-c1ccccc1 [N-((1S)-1-(7-fluoro-1-oxido-2-phenyl-3-quinolinyl)ethyl)-9H-purin-6-amine] | 8.33 |  |
| Cc1cccnc1-c1nc2c(Cl)cccc2cc1CNc1ncnc2[nH]cnc12 [N-((8-chloro-2-(3-methyl-2-pyridinyl)-3-quinolinyOmethyl)-9H-purin-6-amine] |  | pIC50 (purified human B cells, anti-Human IgM + CD40L-LZ, 72 h): 7.10 |
| C[C@H](Nc1ncnc2nc[nH]c12)c1cc2cccc(F)c2nc1-c1cc(F)cc(Cl)c1 [N-((1S)-1-(2-(3-chloro-5-fluorophenyl)-8-fluoro-3-quinolinyl)ethyl)-7H-purin-6-amine] | 8.09 |  |
